The values below come from US9328092B2, “Acrylamide compounds as histamine H3 receptor ligands” (Suven Life Sciences Limited, priority 2012, dated 2016).

Each structure is given as a SMILES string. Counter-ions that a name gives are not always drawn.

One data set has as its system Male Wister rats. Description: Object recognition task model. It counts as in vivo. As to conditions: 1 mg/kg, p.o. The method, then: The cognition enhancing properties of compounds of this invention were estimated using a model of animal cognition: the object recognition task model.
Male Wister rats (230-280 grams) were used as experimental animals. Four animals were housed in each cage. Animals were kept on 20% food deprivation before one day and given water ad libitum throughout the experiment and maintained on a 12 hours light/dark cycle. Also the rats were habituated to individual arenas for 1 hour in the absence of any objects.
One group of 12 rats received vehicle (1 mL/Kg) orally and another set of animals received compound of the formula (I) either orally or i.p., before one hour of the familiar (T1) and choice trial (T2).
The experiment was carried out in a 50×50×50 cm open field made up of acrylic. In the familiarization phase, (T1), the rats were placed individually in the open field for 3 minutes, in which two identical objects (plastic bottles, 12.5 cm height×5.5 cm diameter) covered in yellow masking tape alone (a1 and a2) were positioned in two adjacent corners, 10 cm. from the walls. After 24 hours of the (T1) trial for long-term memory test, the same rats were placed in the same arena as they were placed in T1 trial. Choice phase (T2) rats were allowed to explore the open field for 3 minutes in presence of one familiar object (a3) and one novel object (b) (Amber color glass bottle, 12 cm high and 5 cm in diameter). Familiar objects presented similar textures, colors and sizes. During the T1 and T2 trial, explorations of each object (defined as sniffing, licking, chewing or having moving vibrissae whilst directing the nose towards the object at a distance of less than 1 cm) were recorded separately by stopwatch. Sitting on an object was not regarded as exploratory activity, however, it was rarely observed.
T1 is the total time spent exploring the familiar objects (a1+a2).
T2 is the total time spent exploring the familiar object and novel object (a3+b).
The object recognition test was performed as described by Ennaceur, A., Delacour, J., 1988, A new one-trial test for neurobiological studies of memory in rats—Behavioural data, Behav. Brain Res., 31, 47-59.

Data set [1] is described as follows: Rodent brain penetration study. It is filed as in vivo, Male Wistar rats. As to conditions: Wister rats/Male, 3 mg/kg, Per-oral; for Kp at 1 h: male, Wistar, rat, brain homogenate / whole blood, po, 1 h post dose, read-out: Brain Penetration @ 1 h post dose (Cbrain/Cblood). The method, then:
Male Wistar rats (230-280 grams) were used as experimental animals. Three animals were housed in each cage. Animals were given water and food ad libitum throughout the experiment and maintained on a 12 hours light/dark cycle. Brain penetration was determined in discrete manner in rats. One day prior to dosing day, male wistar rats (225-250 grams) were acclimatized. After acclimatization, the rats were grouped according to the weight in each group, 3 animals were kept in individual cage and allowed free access to food and water. At each time point (05, 1, and 2 hrs) n=3 animals were used. The compounds of formula (I) were dissolved in water and administered orally at (free base) 3 mg/kg. Blood samples were removed via, cardiac puncture by using light ether anesthesia the animals were sacrificed to collect brain tissue. Brain samples were homogenized and stored frozen at −20° C. until analysis. The concentrations of the compounds of formula (I) in blood and brain were determined using LC-MS/MS method. The compounds of formula (I) were quantified in blood and brain homogenate by validated LC-MS/MS method using acetonitrile precipitation technique. The compounds of formula (I) were quantified in the calibration range of 1-1000 ng/mL in blood and brain homogenate. Study samples were analyzed using calibration samples in the batch and quality control samples spread across the batch. Extents of brain to blood ratios were calculated (Cbrain/Cblood).

The nature of data set [2]: Rodent pharmacokinetic study. It counts as in vivo. As to conditions: rat, whole blood, Wistar rats/Male; for AUC(0-t) / Cmax / Tmax / half-life: blood; for bioavailability: 3 mg/kg Per-Oral vs 1 mg/kg Intravenous. The method, then: Male Wistar rats (230-280 grams) were used as experimental animals. Three to five animals were housed in each cage. One day prior to dosing day, male wistar rats (225-250 grams) were anesthetized with isoflurane for surgical placement of jugular vein catheter. Animals were kept fasted over night and maintained on a 12 hours light/dark cycle. Three rats were dosed with compounds of formula (I) orally (3 mg/Kg) and intravenously (1 mg/kg) in two separate set of animals (n=3 rats/group). At each time point, blood was collected by jugular vein. Blood was stored frozen at […] until analysis. The concentrations of the compounds of formula (I) in blood were determined using LC-MS/MS method. Schedule time points: Pre dose 0.08 (only for i.v.) 0.25, 0.5, 1, 2, 4, 6, 8, and 24 hours after dosing (n=3). The compounds of formula (I) were quantified in blood by validated LC-MS/MS method using acetonitrile precipitation technique. The compounds of formula (I) were quantified in the calibration range of 1-1000 ng/mL in blood. Study samples were analyzed using calibration samples in the batch and quality control samples spread across the batch. Pharmacokinetic parameters Cmax, Tmax, AUCt, T1/2 and Bioavailability were calculated by non-compartmental model using software Pheonix WinNonlin version 6.0.1.

For data set [3], the target named is Human or Rat Histamine H3 Receptor (UniProt Q9Y5N1). Description: Binding assay for human or rat histamine H3 receptor ([3H] R-α-methylhistamine displacement). As to conditions: [3H] R-α-methylhistamine 3.0 nM, rat brain frontal cortex or recombinant human receptor in CHO cells (source for table not stated). The method, then: Binding and Functional Assays for Human or Rat Histamine H3 Receptor
Compounds can be evaluated according to the following procedures.
• Receptor source: Rat brain frontal cortex or recombinant human cDNA expressed in CHO cells • Radioligand: [^3H] R-α-methylhistamine • Final ligand concentration—[3.0 nM] • Non-specific determinant: R-α-methylhistamine (100 μM) • Reference compound: R-α-methylhistamine • Positive control: R-α-methylhistamine Incubation Conditions:
Increasing concentrations of test compounds or standard were incubated with membrane receptors and radioligand in 5 mM MgCl2 and 50 mM TRIS-HCl (pH 7.4) for 60 minutes at room temperature. The reaction was terminated by rapid vacuum filtration onto the glass fiber filters. Radioactivity trapped onto the filters was determined and compared to the control values in order to ascertain any interactions of the test compound(s) with either cloned human or rat receptor binding site.

Regarding `O=C(C=Cc1ccc(OC2CCN(C3CCC3)CC2)cc1)N1CCOCC1.O=C(O)/C=C/C(=O)O` [Example 1, 3-[4-(1-Cyclobutylpiperidin-4-yloxy)phenyl]-1-(morpholin-4-yl)prop-2-ene-1-one fumarate salt], the Inference entry in the data set with Male Wister rats was “Active”. Besides, in the data set with Male Wister rats (choice trial T2), the “Exploration time mean ± S.E.M, Familiar object” value is 5.96 ± 1.03 s and the “Exploration time mean ± S.E.M, Novel object” value worked out at 14.86 ± 1.92 s. Besides, the “Brain Penetration @ 1 h post dose (Cbrain/Cblood)” value in data set [1] is recorded as 1.40. In data set [2] (1 mg/kg, Intravenous), the AUC(0-t) (commonly exposure summed from dosing to a finite time, without extrapolation to infinity) worked out at 208 ± 7 ng·h/mL; the Cmax (usually the peak of the concentration-time curve) turned out to be 214 ± 25 ng/mL; the Tmax – broadly, the time from dosing to the highest level – turned out to be 4.8 min; the half-life (commonly the time needed for the level to fall by half in the phase considered) is 63 ± 4.2 min. In addition, in data set [2], the bioavailability (in general, the share of a dose that reaches the circulation, judged against a reference dose that is usually intravenous) is 29 ± 2%. Besides, in data set [2] (3 mg/kg, Per-Oral), the AUC(0-t) turned out to be 176 ± 10 ng·h/mL, the Cmax was 106 ± 5 ng/mL, the Tmax was 30 min and the half-life was 93.6 ± 25.8 min. In addition, the Ki – broadly, a dissociation constant, usually derived from enzyme kinetics or from competition with a known ligand – in data set [3] (fumarate salt) amounted to 1.32 nM.
Turning to `O=C(C=Cc1ccc(OC2CCN(C3CCC3)CC2)cc1)N1CCCCC1` [Example 2, 3-[4-(1-Cyclobutylpiperidin-4-yloxy)phenyl]-1-(piperidin-1-yl)prop-2-ene-1-one hydrochloride salt], the Ki in data set [3] was 1.82 nM.
Still for that read-out and setting: with `O=C(C=Cc1ccc(OC2CCN(C3CCC3)CC2)cc1)N1CCS(=O)(=O)CC1` [Example 3, 3-[4-(1-Cyclobutylpiperidin-4-yloxy)phenyl]-1-(1,1-dioxothiomorpholin-4-yl)prop-2-ene-1-one hydrochloride salt] the figure was 1.4 nM; with `O=C(C=Cc1ccc(OC2CCN(C3CCC3)CC2)nc1)N1CCCCC1` [Example 4, 3-[2-(1-Cyclobutylpiperidin-4-yloxy)pyridin-5-yl]-1-(piperidin-1-yl)prop-2-ene-1-one L(+)-Tartarate salt], 7.82 nM.
Regarding `CC(C)N1CCC(Oc2ccc(C=CC(=O)N3CCOCC3)c(F)c2)CC1` [Example 6, 3-[2-Fluoro-4-(1-isopropylpiperidin-4-yloxy)phenyl]-1-(morpholin-4-yl)prop-2-ene-1-one L(+)-Tartarate salt], the Ki in data set [3] is 17.5 nM.
Consider `O=C(C=Cc1ccc(OC2CCN(C3CCC3)CC2)cc1F)N1CCOCC1.O=C(O)C(O)C(O)C(=O)O` [Example 7, 3-[2-Fluoro-4-(1-cyclobutylpiperidin-4-yloxy)phenyl]-1-(morpholin-4-yl)prop-2-ene-1-one L(+)-Tartarate salt], for which the Kp at 1 h in data set [1] stood at 2.51. Moreover, in data set [2] (1 mg/kg, Intravenous), the AUC(0-t) came out at 167 ± 47 ng·h/mL, the Cmax is 311 ± 110 ng/mL, the Tmax worked out at 4.8 min and the half-life is 36 ± 12 min. For the same compound, the bioavailability in data set [2] came to 9 ± 5%. Also, in data set [2] (3 mg/kg, Per-Oral), the AUC(0-t) worked out at 49 ± 29 ng·h/mL, the concentration peaked (Cmax) at 57 ± 36 ng/mL, the Tmax stood at 15 min and the half-life was 54 ± 36 min. Further, the Ki in data set [3] was determined as 2.96 nM.
Turning to `Cc1cc(OC2CCN(C3CCC3)CC2)ccc1C=CC(=O)N1CCOCC1` [Example 8, 3-[4-(1-Cyclobutylpiperidin-4-yloxy)-2-methylphenyl]-1-(morpholin-4-yl)prop-2-ene-1-one L(+)-Tartarate salt], in data set [3], the Ki worked out at 6.34 nM.
Still for that read-out and setting: with `Cc1cc(OC2CCN(C(C)C)CC2)ccc1C=CC(=O)N1CCOCC1` [Example 9, 3-[4-(1-Isopropylpiperidin-4-yloxy)-2-methylphenyl]-1-(morpholin-4-yl)prop-2-ene-1-one L(+)-Tartarate salt] the figure was 13.1 nM.
`O=C(C=Cc1ccc(OC2CCN(C3CCC3)CC2)cc1)N1CCOCC1.O=C(O)C(O)C(O)C(=O)O` [Example 10, 3-[4-(1-Cyclobutylpiperidin-4-yloxy)phenyl]-1-(morpholin-4-yl)prop-2-ene-1-one L(+)-Tartarate salt]: the Kp at 1 h in data set [1] came to 1.36. Also, in data set [2] (1 mg/kg, Intravenous), the AUC(0-t) is 222 ± 33 ng·h/mL, the highest level (Cmax) was 285 ± 46 ng/mL, the Tmax amounted to 4.8 min and the half-life was 48 ± 3 min. Moreover, the bioavailability in data set [2] stood at 58 ± 6%. In data set [2] (3 mg/kg, Per-Oral), the AUC(0-t) worked out at 387 ± 38 ng·h/mL, the highest level (Cmax) was 290 ± 32 ng/mL, the Tmax came to 15 min and the half-life is 51 ± 8.4 min. For the same compound, the Ki in data set [3] was found to be 3.43 nM.
Regarding `COc1cc(C=CC(=O)N2CCOCC2)ccc1OC1CCN(C2CCC2)CC1` [Example 11, 3-[4-(1-Cyclobutylpiperidin-4-yloxy)-3-methoxyphenyl]-1-(morpholin-4-yl)prop-2-ene-1-one L(+)-Tartarate salt], in data set [3], the Ki was 77.2 nM.
Regarding `CC(C)CN1CCC(Oc2ccc(C=CC(=O)N3CCOCC3)cc2)CC1` [Example 18, 3-[4-(1-Isobutylpiperidin-4-yloxy)phenyl]-1-(morpholin-4-yl)prop-2-ene-1-one], the Ki in data set [3] was 32.4 nM.
On the same count and under the same terms, with `CC(C)N1CCC(Oc2ccc(C=CC(=O)N3CCOCC3)cc2Br)CC1` [Example 19, 3-[3-Bromo-4-(1-isopropylpiperidin-4-yloxy)phenyl]-1-(morpholin-4-yl)prop-2-ene-1-one] the figure was 17 nM; with `O=C(C=Cc1ccc(OC2CCN(C3CCC3)CC2)c(Br)c1)N1CCOCC1` [Example 20, 3-[3-Bromo-4-(1-cyclobutylpiperidin-4-yloxy)phenyl]-1-(morpholin-4-yl)prop-2-ene-1-one], 5.97 nM; with `O=C(C=Cc1ccc(OC2CCN(CC3CC3)CC2)c(Br)c1)N1CCOCC1` [Example 22, 3-[3-Bromo-4-(1-cyclopropylmethylpiperidin-4-yloxy)phenyl]-1-(morpholin-4-yl)prop-2-ene-1-one], 52.6 nM.
The same measure, in the same setting: with `O=C(C=Cc1ccc(OC2CCN(C3CCC3)CC2)cc1Cl)N1CCOCC1` [Example 25, 3-[2-Chloro-4-(1-cyclobutylpiperidin-4-yloxy)phenyl]-1-(morpholin-4-yl)prop-2-ene-1-one] the figure was 29.7 nM.
